Assays:
Test in all cases: relative viability (nuclei count vs DMSO), 5 days (fraction); higher = more cells survive
[1] = tested on: ChaGo-K-1
Outline: (§1)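 Nuclei were stained with Hoechst during a one-step fixation (final 0.05% Triton X-100, 1% formaldehyde, 1 ug/ml Hoechst) carried out 5 days after dosing, then counted on 4× images. The cells, lung cancer lines in 1536-well plates, had been dosed by pin tool the day after seeding with one drug alone or a fixed anchor-drug dose plus five library-drug doses (not always all listed) in √10 steps. Relative viability is the nuclei count in treated wells divided by that in vehicle wells, and each value is the median of duplicate plates.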

[2] = tested on: EMC-BAC-2
Outline: as §1

[3] = tested on: EPLC-272H
Outline: as §1

[4] = tested on: HOP-62
Outline: as §1

[5] = tested on: LCLC-103H
Outline: as §1

[6] = tested on: LCLC-97TM1
Outline: as §1

[7] = tested on: LOU-NH91
Outline: as §1

[8] = tested on: NCI-H1395
Outline: as §1

[9] = tested on: NCI-H1975
Outline: as §1

[10] = tested on: NCI-H1993
Outline: as §1

[11] = tested on: NCI-H2085
Outline: as §1

[12] = tested on: NCI-H2126
Outline: as §1

[13] = tested on: NCI-H2170
Outline: as §1

[14] = tested on: NCI-H2228
Outline: as §1

[15] = tested on: NCI-H2342
Outline: as §1

[16] = tested on: NCI-H2405
Outline: as §1

[17] = tested on: NCI-H3122
Outline: as §1

[18] = tested on: NCI-H322M
Outline: as §1

[19] = tested on: NCI-H460
Outline: as §1

[20] = tested on: NCI-H520
Outline: as §1

[21] = tested on: NCI-H647
Outline: as §1

[22] = tested on: SK-LU-1
Outline: as §1

Work on Oc1nc(-c2ccc(C(F)(F)F)cc2)nc2c1CSCC2 [XAV939] + Cc1nc(Nc2ncc(C(=O)Nc3c(C)cccc3Cl)s2)cc(N2CCN(CCO)CC2)n1 [Dasatinib] (partner 0.075 µM) yielded a relative viability ([1]; first compound 0.08 µM) of 0.654, a relative viability ([1]; first compound 0.253 µM) of 0.639 and a relative viability ([1]; first compound 0.8 µM) of 0.587. The relative viability ([1]; first compound 2.53 µM) was 0.56, the relative viability ([2]; first compound 0.08 µM) was 0.321 and the relative viability ([2]; first compound 0.253 µM) was 0.278. It also gave a relative viability ([2]; first compound 0.8 µM) of 0.282, a relative viability ([2]; first compound 2.53 µM) of 0.23 and a relative viability ([3]; first compound 0.08 µM) of 0.385. The relative viability ([3]; first compound 0.253 µM) was 0.403, the relative viability ([3]; first compound 0.8 µM) was 0.355 and the relative viability ([3]; first compound 2.53 µM) was 0.247. It also gave a relative viability ([4]; first compound 0.08 µM) of 0.738, a relative viability ([4]; first compound 0.253 µM) of 0.659 and a relative viability ([4]; first compound 0.8 µM) of 0.621. The relative viability ([4]; first compound 2.53 µM) was 0.396, the relative viability ([5]; first compound 0.08 µM) was 0.633 and the relative viability ([5]; first compound 0.253 µM) was 0.553. It also gave a relative viability ([5]; first compound 0.8 µM) of 0.55, a relative viability ([5]; first compound 2.53 µM) of 0.456 and a relative viability ([6]; first compound 0.08 µM) of 0.981. For the same molecule, the relative viability ([6]; first compound 0.253 µM) was 0.851, the relative viability ([6]; first compound 0.8 µM) was 0.964 and the relative viability ([6]; first compound 2.53 µM) was 0.977. The relative viability ([7]; first compound 0.08 µM) was 0.519, the relative viability ([7]; first compound 0.253 µM) was 0.5 and the relative viability ([7]; first compound 0.8 µM) was 0.501. The relative viability ([7]; first compound 2.53 µM) was 0.526, the relative viability ([8]; first compound 0.08 µM) was 0.4 and the relative viability ([8]; first compound 0.253 µM) was 0.378. The relative viability ([8]; first compound 0.8 µM) was 0.381, the relative viability ([8]; first compound 2.53 µM) was 0.458 and the relative viability ([9]; first compound 0.08 µM) was 0.305. For the same molecule, the relative viability ([9]; first compound 0.253 µM) was 0.264, the relative viability ([9]; first compound 0.8 µM) was 0.286 and the relative viability ([9]; first compound 2.53 µM) was 0.234. For the same molecule, the relative viability ([10]; first compound 0.08 µM) was 0.52, the relative viability ([10]; first compound 0.253 µM) was 0.52 and the relative viability ([10]; first compound 0.8 µM) was 0.557. For the same molecule, the relative viability ([10]; first compound 2.53 µM) was 0.535, the relative viability ([11]; first compound 0.08 µM) was 0.288 and the relative viability ([11]; first compound 0.253 µM) was 0.196. It also gave a relative viability ([11]; first compound 0.8 µM) of 0.285, a relative viability ([11]; first compound 2.53 µM) of 0.204 and a relative viability ([12]; first compound 0.08 µM) of 0.544. For the same molecule, the relative viability ([12]; first compound 0.253 µM) was 0.403, the relative viability ([12]; first compound 0.8 µM) was 0.405 and the relative viability ([12]; first compound 2.53 µM) was 0.33. The relative viability ([13]; first compound 0.08 µM) was 0.505, the relative viability ([13]; first compound 0.253 µM) was 0.496 and the relative viability ([13]; first compound 0.8 µM) was 0.46. The relative viability ([13]; first compound 2.53 µM) was 0.394, the relative viability ([14]; first compound 0.08 µM) was 0.496 and the relative viability ([14]; first compound 0.253 µM) was 0.426. It also gave a relative viability ([14]; first compound 0.8 µM) of 0.473, a relative viability ([14]; first compound 2.53 µM) of 0.382 and a relative viability ([15]; first compound 0.08 µM) of 0.309. For the same molecule, the relative viability ([15]; first compound 0.253 µM) was 0.285, the relative viability ([15]; first compound 0.8 µM) was 0.326 and the relative viability ([15]; first compound 2.53 µM) was 0.254. The relative viability ([16]; first compound 0.08 µM) was 0.221, the relative viability ([16]; first compound 0.253 µM) was 0.225 and the relative viability ([16]; first compound 0.8 µM) was 0.214. It also gave a relative viability ([16]; first compound 2.53 µM) of 0.229, a relative viability ([17]; first compound 0.08 µM) of 0.877 and a relative viability ([17]; first compound 0.253 µM) of 0.786. The relative viability ([17]; first compound 0.8 µM) was 0.789, the relative viability ([17]; first compound 2.53 µM) was 0.181 and the relative viability ([18]; first compound 0.08 µM) was 0.241. The relative viability ([18]; first compound 0.253 µM) was 0.254, the relative viability ([18]; first compound 0.8 µM) was 0.227 and the relative viability ([18]; first compound 2.53 µM) was 0.22. It also gave a relative viability ([19]; first compound 0.08 µM) of 0.479, a relative viability ([19]; first compound 0.253 µM) of 0.533 and a relative viability ([19]; first compound 0.8 µM) of 0.482. The relative viability ([19]; first compound 2.53 µM) was 0.467, the relative viability ([20]; first compound 0.08 µM) was 0.179 and the relative viability ([20]; first compound 0.253 µM) was 0.17. The relative viability ([20]; first compound 0.8 µM) was 0.152, the relative viability ([20]; first compound 2.53 µM) was 0.193 and the relative viability ([21]; first compound 0.08 µM) was 0.164. For the same molecule, the relative viability ([21]; first compound 0.253 µM) was 0.207, the relative viability ([21]; first compound 0.8 µM) was 0.201 and the relative viability ([21]; first compound 2.53 µM) was 0.147. The relative viability ([22]; first compound 0.08 µM) was 0.166, the relative viability ([22]; first compound 0.253 µM) was 0.147 and the relative viability ([22]; first compound 0.8 µM) was 0.211. The relative viability ([22]; first compound 2.53 µM) was 0.188.

— the supplement of paper PMC10307832
